Biological target: T1, EPHA2 (Homo sapiens, UniProt P29317)
T1 construct: purchased Thermo Fisher Scientific (Life Technologies) SelectScreen
Test: SelectScreen Z'LYTE
Format: biochemical
How it was run: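 NU5455 was profiled across the SelectScreen Broad panel of kinase activity and binding assays. Z'LYTE reactions such as CSF1R ran at apparent Km ATP, while the Adapta CAMK1 assay used ATP listed as 10. Values are given as percent.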

T1 sequence (P29317 24-976): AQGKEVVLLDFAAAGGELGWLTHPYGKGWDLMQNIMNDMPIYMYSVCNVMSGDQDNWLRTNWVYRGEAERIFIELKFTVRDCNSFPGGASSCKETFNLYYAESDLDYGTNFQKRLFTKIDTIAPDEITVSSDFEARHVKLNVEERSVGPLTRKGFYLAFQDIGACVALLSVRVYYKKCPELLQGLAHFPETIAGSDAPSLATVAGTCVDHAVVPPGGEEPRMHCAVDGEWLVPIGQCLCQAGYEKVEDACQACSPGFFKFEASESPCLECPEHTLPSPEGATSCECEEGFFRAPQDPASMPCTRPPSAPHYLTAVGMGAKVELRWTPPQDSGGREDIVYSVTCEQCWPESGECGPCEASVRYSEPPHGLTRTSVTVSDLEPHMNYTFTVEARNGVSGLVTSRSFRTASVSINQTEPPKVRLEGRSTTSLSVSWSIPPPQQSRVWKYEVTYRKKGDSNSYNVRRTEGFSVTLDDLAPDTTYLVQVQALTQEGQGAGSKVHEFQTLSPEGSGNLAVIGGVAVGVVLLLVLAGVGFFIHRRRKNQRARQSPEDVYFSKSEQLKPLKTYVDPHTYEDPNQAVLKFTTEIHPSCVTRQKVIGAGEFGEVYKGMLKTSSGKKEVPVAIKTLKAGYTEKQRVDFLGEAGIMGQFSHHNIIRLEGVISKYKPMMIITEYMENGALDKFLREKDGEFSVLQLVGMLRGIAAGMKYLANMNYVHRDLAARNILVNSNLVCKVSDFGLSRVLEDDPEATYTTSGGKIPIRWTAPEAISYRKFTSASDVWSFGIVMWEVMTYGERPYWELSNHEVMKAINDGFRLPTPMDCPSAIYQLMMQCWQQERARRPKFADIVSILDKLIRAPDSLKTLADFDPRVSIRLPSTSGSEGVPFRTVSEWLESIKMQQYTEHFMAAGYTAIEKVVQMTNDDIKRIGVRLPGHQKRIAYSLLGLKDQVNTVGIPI

CN(C(=O)CN1CCOCC1)c1ccc2sc3c(-c4cccc5c(=O)cc(N6CC7CCC(C6)O7)oc45)cccc3c2c1 [NU5455]
inhibition at 1 µM: 4.8%

Source: publication PMC6934184, “Selective DNA-PKcs inhibition extends the therapeutic index of localized radiotherapy and chemotherapy” (The Journal of Clinical Investigation, 2019)
